Source: patent US20250283050A1, “METHOD OF CANCER TREATMENT” (priority 2021, published 2025)

Key:
[1] = system: Hom-1 expression in TAMs; test: DOX induction of Hom-1 expression; format: cell-based, human
Description: Total RNA was isolated by the TRIzol reagent (Life Technologies) and RNA amounts were measured by NanoDrop 2000 (Thermo Scientific). Equal amount of RNA was used for first-strand cDNA synthesis with SuperScript III First-Strand Synthesis System (Life Technologies) according to the manufacturer's protocol. The AccuPrime Taq DNA polymerase system (Life Technologies) was used to amplify Hom-1 cDNA with conventional PCR. Quantitative measurements of Hom-1 and other cDNA were carried out with SYBR Green, using a Mastercycler ep Gradient S (Eppendorf). GAPDH was used as a house keeping gene to normalize mRNA expression. Relative expression profiles of mRNAs were calculated using the comparative Ct method (DDCT method).
Tumor tissue were washed with 1×PBS buffer plus antibiotics and then cut into 0.5 cm pieces. Tissues were cultured in 2 mL of RPMI 1640 medium, supplemented with 2-10% FBS (Sigma) and 1% antibiotic-antimycotic solution (Gibco) in 24-well plate (Corning). The cultures were incubated at a 37° C., 5% CO2 incubator. […] To evaluate the effect of chemotherapeutic agents, chemo-reagents at indicated concentration or PBS was used instead of the anti-PD-1 antibody. For en bloc tissue and macrophage co-culture assay, 0.25×10^6 GFP-Hom-1 or control GFP transfected autologous macrophages of the same patient were added to the en bloc tissue culture wells. […]

[2] = system: NFκB; test: NF-κB activation assay in monocytes; format: cell-based; conditions: primary human monocytes; 24 hour
Description: To determine whether NFκB plays a role in DOX activation of Hom-1 expression in monocytes, the effects of DOX on NFκB expression in primary monocytes were determined.
Human monocytes were treated with DOX at indicated concentration or PBS control. After 24 hour of treatment, the nuclear extracts were prepared using a nuclear extract kit (Active Motif, Cat. 40010). The DNA-binding activity of NF-κB p65 was determined using the TransAm assays (Active Motif, Cat. 40097) according to the manufacturer's instructions. Briefly, 2.5 μg nuclear extracts of each sample were incubated with immobilized NF-κB-specific oligonucleotides for 1 hr. The p65 protein bound to DNA was then visualized by incubation with p65-specific antibody, HRP-conjugated secondary antibody and developing solution and measured with a microplate reader with the absorbance at 450 nm.

[3] = system: esophageal cancer; test: en bloc tumor culture with chemotherapeutic agent and Hom-1-TAMs: esophageal cancer; format: cell-based; conditions: agent plus Hom-1-TAMs
Description: (§1) Besides CRC, Hom-1-TAMs reverse immune polarity of PDAC and NSCLC TME (data not shown). The effects of Hom-1-TAM on tumoricidal effects of DOX were further explored on other tumor types, such as PDAC, NSLC, esophageal cancer and stomach cancers.
(§2) Additional chemo-reagents used in this study are listed below.
(§3) Tumor tissue were washed with 1×PBS buffer plus antibiotics and then cut into 0.5 cm pieces. Tissues were cultured in 2 mL of RPMI 1640 medium, supplemented with 2-10% FBS (Sigma) and 1% antibiotic-antimycotic solution (Gibco) in 24-well plate (Corning). The cultures were incubated at a 37° C., 5% CO2 incubator. […] To evaluate the effect of chemotherapeutic agents, chemo-reagents at indicated concentration or PBS was used instead of the anti-PD-1 antibody. For en bloc tissue and macrophage co-culture assay, 0.25×10^6 GFP-Hom-1 or control GFP transfected autologous macrophages of the same patient were added to the en bloc tissue culture wells. After gently shaking, the plate was incubated at 37° C., 5% CO2 for 3-5 days. The en bloc tissues were then subjected to single 1 cell isolation and analysis as described.

[4] = system: stomach cancer; test: en bloc tumor culture with chemotherapeutic agent and Hom-1-TAMs: stomach cancer; format: cell-based; conditions: agent plus Hom-1-TAMs
Description: as §1, §2, §3

[5] = system: NFκB binding to Hom-1 promoter; test: ChIP assay of NFκB at Hom-1 promoter; format: cell-based; conditions: human monocytes, 1 μM DOX, 24 hours
Description: Human monocytes were treated with 1 μM DOX or PBS control for 24 hours and harvested for ChIP assay. The ChIP procedure was performed with a kit from Upstate biotechnology following the manufacturer's instructions. The NFκB p65 antibody (Cell Signaling Technology, Cat# 8242) was used for the immunoprecipitation. The Rabbit IgG antibody was served as a negative control. The Hom-1 promotor region containing a putative NFκB binding site was amplified with specific primers 5′-[…]-3′ and 5′-[…]-3′. All PCR products were separated on 1% agarose gel and visualized by ethidium bromide staining.

[6] = system: PDAC; test: en bloc tumor culture with chemotherapeutic agent and Hom-1-TAMs: PDAC; format: cell-based; conditions: agent plus Hom-1-TAMs
Description: as §1, §2, §3

[7] = system: normal epithelial cells of colon mucosal tissues; test: en bloc control colon mucosal tissue culture: normal epithelial cell death by PI-staining and FACS; format: cell-based, human; conditions: DOX 3 days
Description: (§4) To this end, en bloc colorectal cancers (CRC) or control non-tumor colon mucosal tissues from the same patients were incubated in RPMI based media and treated with DOX for 3 days. The effects of the treatment on tumor or normal cells were then determined by PI-staining and FACS analysis.
(§5) To this end, en bloc CRC tumor or control colon mucosal tissues were treated with DOX at low non-cytotoxic dosage and then co-cultured with TAMs transfected with Hom-1 or control GFP. After 5 days of co-culturing, the effects of the treatment on the survival of tumor or control normal epithelial cells were determined by PI staining and FACS analysis.
Tumor tissue were washed with 1×PBS buffer plus antibiotics and then cut into 0.5 cm pieces. Tissues were cultured in 2 mL of RPMI 1640 medium, supplemented with 2-10% FBS (Sigma) and 1% antibiotic-antimycotic solution (Gibco) in 24-well plate (Corning). The cultures were incubated at a 37° C., 5% CO2 incubator. […]
Single cell suspensions generated from en bloc tissue culture were washed with FACS staining solution (PBS plus 2% FBS), fixed and permeabilized (Invitrogen) and then stained with Ber-EP4 antibodies for normal epithelial cells and CK7, CK19 and CK20 for cancer cells for 30 minutes on ice. […] Cell viability were then analyzed with a flow cytometry.

[8] = system: TAMs and TIL in en bloc CRC; test: en bloc CRC culture: DOX effects on TAM plasticity and TIL differentiation; format: cell-based, human
Description: As DOX induces Hom-1 expression in TAMs in en bloc CRC culture (data not shown), this example illustrates the involvement of Hom-1 in mediating therapeutic effects of DOX.
Consistent with a key regulatory role of Hom-1 in mediating DOX effects on TAM plasticity and the immune landscape of TME, it was shown that knockdown of Hom-1 expression in TAMs attenuated DOX effects on the expression of M1 and M2 markers and inhibited DOX-induced secretion of pro-inflammatory cytokines (data not shown).
as §3

[9] = system: non-small cell lung cancer (NSCLC); test: en bloc tumor culture with chemotherapeutic agent and Hom-1-TAMs: NSCLC; format: cell-based; conditions: agent plus Hom-1-TAMs
Description: as §1, §2, §3

[10] = system: primary human CRC; test: NSG-PDX model of primary human CRC; format: in vivo; conditions: low dosage DOX 1.5 mg/kg tail-vein, alone
Description: To this end, NSG-PDX models of primary human CRC were established according to established methods. One week post-implantation of primary CRC tumors, the mice were tail-vein injected with a low dosage of Hom-1-TAMs. Three days later, low dosage DOX at 1.5 mg/kg were given through tail-vein injection and the DOX injection were repeated after two weeks.
Animal models of primary human colon cancers were developed previously. Briefly, 8-week-old NOD. Cg-Prkdc^scid Il2rg^tm1Wjl/SzJ mice (commonly known as NOD scid gamma, or NSG mice) were purchased from the Jackson Laboratory and maintained under specific pathogen-free conditions. Tumors were cut into around 0.5 cm pieces and then surgically implanted into subcutaneous space in flank of NSG mice. After one week of implantation, 0.25×10^6 TAMs transfected with GFP-Hom-1 or control GFP were injected into the mice through tail vain. After three days, 1.5 mg/Kg of DOX or PBS control were tail-vain injected and then repeated after two weeks. The tumor growth was monitored twice weekly and measured by a caliper for 6 weeks. Tumor volumes were calculated according to the formula ½ (length×width^2).

[11] = system: colorectal cancers (CRC) tumor cells; test: en bloc CRC culture: tumor cell death by PI-staining and FACS; format: cell-based, human
Description: as §4, §5, §3
Single cell suspensions generated from en bloc tissue culture were washed with FACS staining solution (PBS plus 2% FBS), fixed and permeabilized (Invitrogen) and then stained with Ber-EP4 antibodies for normal epithelial cells and CK7, CK19 and CK20 for cancer cells for 30 minutes on ice. After washes with FACS staining solution, cells were stained with FITC-conjugated secondary antibodies for 30 minutes on ice. The cells were then washed with FACS staining solution and fixed in 2% paraformaldehyde in PBS for 30 min or overnight. The cells were washed and resuspended in 200 μL of FACS staining solution and 5 μL of PI staining solution (eBioscience/Fisher Scientific) were added in the solution for 15 minutes. Cell viability were then analyzed with a flow cytometry.

[12] = system: ovarian cancer; test: en bloc tumor culture with chemotherapeutic agent and Hom-1-TAMs: ovarian cancer; format: cell-based; conditions: agent plus Hom-1-TAMs
Description: as §2, §3

SMILES	Hom-1 expression ([1]; cancer cells and macrophages)	TAM Hom-1 expression ([1]; en bloc CRC culture)	NFκB expression [2]	tumoricidal effects promoted by Hom-1-TAMs [3]	tumoricidal effects promoted by Hom-1-TAMs [4]	interaction of NFκB with Hom-1 promoter [5]	tumoricidal effects promoted by Hom-1-TAMs [6]	cytotoxic effects on normal epithelial cells [7]	CD4 T cell differentiation into Treg cells [8]	CD8 T cell activation [8]	TAM phenotype (M1/M2 markers and cytokines) [8]	tumoricidal effects promoted by Hom-1-TAMs [9]	inhibition of CRC tumorigenesis [10]	cytocidal effects on tumor cells ([11]; en bloc CRC culture, agent alone, dose range)	cytocidal effects on tumor cells ([11]; en bloc CRC, DOX alone at non-cytotoxic concentration, 5 days)	tumoricidal effects promoted by Hom-1-TAMs [12]
COc1cccc2c1C(=O)c1c(O)c3c(c(O)c1C2=O)C[C@@](O)(C(=O)CO)C[C@@H]3O[C@H]1C[C@H](N)[C@H](O)[C@H](C)O1 [DOX, Doxorubicin]	potent inducer of Hom-1 expression both in cancer cells and in macrophages	induced TAM Hom-1 expression in the en bloc CRC culture in a dosage dependent manner	induces NFκB expression in primary human monocytes in a dosage dependent manner	promotes tumoricidal function	promotes tumoricidal function	promoted the interaction of NFκB with Hom-1 promoter	promotes tumoricidal function	less cytotoxic effects on normal epithelial cells	reduced CD4 T cell differentiation into Treg cells	increased CD8 T cell activation	shifted the population of TAMs from M2-like phenotype to M1-like phenotype	promotes tumoricidal function	small discernable inhibition on CRC tumorigenesis	dosage-dependent cytocidal effects on tumor cells	little cytocidal effects on tumor cells	
Nc1ccn([C@@H]2O[C@H](CO)[C@@H](O)C2(F)F)c(=O)n1 [Gemcitabine]							promoted									
CC(=O)O[C@H]1C(=O)[C@@]2(C)[C@H]([C@H](OC(=O)c3ccccc3)[C@]3(O)C[C@H](OC(=O)[C@H](O)[C@@H](NC(=O)c4ccccc4)c4ccccc4)C(C)=C1C3(C)C)[C@]1(OC(C)=O)CO[C@@H]1C[C@@H]2O [Taxol]					promoted											promoted
